{
  "source": "patent US5879680A",
  "about": "“Cloned DNA for synthesizing unique glucocerebrosidase” (The United States of America as represented by the …, priority 1995, dated 1999)",
  "origin": "cited, not measured here",
  "biological_target": "human placental glucocerebrosidase (Homo sapiens, UniProt P04062)",
  "sequence (P04062 40-536)": "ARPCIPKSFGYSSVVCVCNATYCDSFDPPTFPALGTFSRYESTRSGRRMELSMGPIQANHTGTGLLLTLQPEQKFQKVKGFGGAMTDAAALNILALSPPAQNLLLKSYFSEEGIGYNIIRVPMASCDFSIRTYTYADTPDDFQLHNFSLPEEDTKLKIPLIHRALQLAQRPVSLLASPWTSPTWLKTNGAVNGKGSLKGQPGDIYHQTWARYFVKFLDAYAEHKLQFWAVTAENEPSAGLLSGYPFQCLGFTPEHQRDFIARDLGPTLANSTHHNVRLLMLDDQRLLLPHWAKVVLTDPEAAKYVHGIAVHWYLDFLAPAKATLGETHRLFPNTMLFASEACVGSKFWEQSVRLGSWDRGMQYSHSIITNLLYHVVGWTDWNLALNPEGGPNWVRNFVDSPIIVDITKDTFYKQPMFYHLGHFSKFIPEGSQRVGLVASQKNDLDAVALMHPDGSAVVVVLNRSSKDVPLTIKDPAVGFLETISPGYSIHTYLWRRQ",
  "details": "placental enzyme, reported by Basu et al, J.B.C. 259:1714, 1984",
  "data": [
    {"smiles": "Cc1cc(=O)oc2cc(O[C@@H]3O[C@H](CO)[C@@H](O)[C@H](O)[C@H]3O)ccc12", "note": "[4MUGP, 4-methylumbellifery-β-D-glucopyranoside]", "values": [
      {"measurement": "Km", "result": 8, "unit": "mM"}
    ]}
  ]
}
